In PubChem BioAssay (NCI) one finds GI50 and TGI data, which are given here for 32 compounds.

This test deals with MDA-MB-468 breast. Kind of test: NCI-60 cell line screen, 48 h.

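Test compounds were applied to cells in 96-well plates for 48 hours at 5 doses. The concentration for 50% growth inhibition is given as GI50. TGI: total growth inhibition.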

Consider `O=C1C(c2c[nH]c3ccccc23)=C(c2c[nH]c3ccccc23)C(=O)N1O`, for which the GI50 is above 25 µM and the TGI is above 25 µM.

For `C=C1SC(=Nc2c(C)cc(C)cc2C)N(C(=O)c2sc3ccccc3c2Cl)C12CCCCC2`, the GI50 is above 100 µM and the TGI was above 100 µM.

Turning to `COc1ccccc1/C=C/[N+](=O)[O-]`, the GI50 was 1.65 µM and the TGI came to 3.6 µM.

On to `Cc1cc(/C=C\c2ccc3ccccc3[n+]2C)c(O)c2ncccc12`, for which the GI50 is 0.316 µM and the TGI was found to be 2.23 µM.

On to `COc1ccc(Nc2ncc(Br)c(NCCCNC(=O)C3CCC3)n2)cc1`, for which the GI50 was 15.4 µM and the TGI was 37 µM.

With `COc1cc2c(c(OC)c1OC)-c1ccc(N)c(=O)cc1[C@@H](NC(C)=O)CC2`, the GI50 is below 0.01 µM.

`COc1ccc(-c2nc3sc(-c4ccc(Cl)cc4)cn3n2)cc1`: the GI50 is 2.08 µM and the TGI is above 50 µM.

On to `CCn1c(C(=O)N(C2CC2)C2CC2)cc2c3c(ncn3C)c(Nc3cc(C)n(C)n3)nc21`, for which the GI50 was above 100 µM and the TGI is above 100 µM.

With `CCCCCCCNc1nc(C(=O)OCC)ncc1-c1ccc(C(F)(F)F)cc1`, the GI50 is 23.4 µM and the TGI came out at 93.1 µM.

On to `C[C@H](NC(=O)[C@@H]1CSSC[C@@H](NC(=O)c2nc3ccccc3cc2O)C(=O)NCC(=O)N1C)c1ccccc1`, for which the GI50 was 5.89 µM and the TGI was 13.2 µM.

On to `CCC(=O)O[C@H]1CC[C@H]2[C@@H]3CC[C@H]4CC(=O)[C@H](C)C[C@]4(C)[C@H]3CC[C@]12C`, for which the GI50 is 33.9 µM and the TGI is above 100 µM.

Take `CCOC(=O)C1(Br)C(c2ccccc2)NC(=O)NC1(C)Br` (configuration not stated): the GI50 is 24 µM and the TGI is 70.5 µM.

Regarding `FC(F)(F)c1cc(-c2nnc3n2N=C(N2CCCC2)CS3)cc(C(F)(F)F)c1`, the GI50 was 32 µM and the TGI was above 50 µM.

Consider `O=[N+]([O-])c1ccc(S(=O)Cc2ccccc2)c([N+](=O)[O-])c1` (configuration not stated), for which the GI50 is 1.7 µM and the TGI came out at 3.13 µM.

`CCc1n(Cc2ccc3ccccc3n2)cc[n+]1Cc1ccc2ccccc2n1` registered a TGI of 0.0994 µM.

With `CN1CCN(c2ccc(NC(=O)c3nc4ccc5[nH]ncc5c4c4c3CCCC4)cc2C(F)(F)F)CC1`, the GI50 is 0.859 µM and the TGI came out at 1.98 µM.

Take `O=Nc1c(-c2c(O)[nH]c3ccc([N+](=O)[O-])cc23)[nH]c2ccc(O)cc12`: the GI50 is 0.359 µM and the TGI is 2.85 µM.

For the compound `O=C(/C=C/C12c3ccccc3C(c3ccccc31)C1C(=O)N(c3ccccc3)C(=O)C12)c1ccccc1` (configuration not stated), the GI50 is 1.87 µM and the TGI stood at 7.71 µM.

With `C=CCN(/C=C1/C(=O)O[C@H](COC)[C@@]2(C)C1=C(O)C(=O)C1=C2[C@H](OC(C)=O)C[C@]2(C)C(=O)CC[C@@H]12)CC=C`, the GI50 is 0.101 µM and the TGI turned out to be 0.779 µM.

Consider `O=C(Nc1ccccc1)Nc1nc2ccc([N+](=O)[O-])cc2s1`, for which the GI50 was 0.755 µM and the TGI was found to be 4.45 µM.

Take `CCCc1c(CC)c(=N)c2ccccc2n1C`: the GI50 is 3.22 µM and the TGI was 48.7 µM.

On to `COc1ccc(N2Cc3cnc(Nc4ccccc4)nc3N([C@@H]3CC[C@@H](O)C3)C2=O)cc1`, for which the GI50 was 6.65 µM and the TGI was above 25 µM.

For the compound `Cc1c(S(C)(=O)=O)c(-c2cc(F)cc(N3CCN(c4ccc(NS(=O)(=O)c5ccc(N[C@H](CCN6CCC(C(=O)OCCCP(=O)(O)O)CC6)CSc6ccccc6)c(S(=O)(=O)C(F)(F)F)c5)cc4)CC3)c2)c(-c2ccc(Cl)cc2)n1C(C)C`, the GI50 is above 100 µM and the TGI was above 100 µM.

For the compound `Cc1ccc(/C(=N\N=C(N)N)c2ccccc2)cc1`, the GI50 was 0.426 µM and the TGI turned out to be 5.83 µM.

For the compound `COc1ccc2c(c1)c(CC(=O)[Se]CC#N)c(C)n2C(=O)c1ccc(Cl)cc1`, the GI50 is 1.2 µM and the TGI came to 3.2 µM.

With `Clc1ccc(N2N=C(c3cccc(Nc4ccncc4)c3)CC2c2ccc3c(c2)OCO3)cc1` (configuration not stated), the GI50 was 1.59 µM and the TGI was 3.08 µM.

On to `CC1(C)CC[C@H](Nc2ncc(C(F)(F)F)c(-c3c[nH]c4c(P(C)(C)=O)c(C#N)ccc34)n2)CN1`, for which the GI50 is 1.22 µM and the TGI is 5.11 µM.

As for `CC[C@@]1(O)C[C@H](OC2CC(N(C)C)C(OC3CC(O)C(OC4CCC(=O)C(C)O4)C(C)O3)C(C)O2)c2c(cc3c(c2O)C(=O)c2c(O)cccc2C3=O)[C@H]1C(=O)OC` (some centres not stated), the GI50 is 0.017 µM and the TGI amounted to 0.123 µM.

Turning to `CCN(CC)CCNc1ccc([N+](=O)[O-])c2sc3ccccc3c(=O)c12`, the GI50 is 1.45 µM and the TGI amounted to 5.07 µM.

For the compound `Oc1ccc(C(c2ccc(O)cc2)c2ccc(Cl)cn2)cc1`, the GI50 is 0.116 µM and the TGI was determined as 0.577 µM.

For the compound `CC(=O)N(O)CCCCCNC(=O)CCC(=O)N(O)CCCCCNC(=O)CCC(=O)N(O)CCCCCN(CCCCCCCCCC[P+](c1ccccc1)(c1ccccc1)c1ccccc1)CCCCCCCCCC[P+](c1ccccc1)(c1ccccc1)c1ccccc1`, the GI50 is 1.68 µM and the TGI is 5.41 µM.

Take `CC(C)CNCC(O)COc1ccc(C(C)(C)c2ccc(OCC(O)CNCC(C)C)cc2)cc1` (configuration not stated): the GI50 was 2.18 µM and the TGI stood at 4.91 µM.
